Results as given in PMC8597116 (Clinical Pharmacology in Drug Development, 2021).
“And” between values parts separate entries of the source, which are not always exact repeats. Identical values can stand only once. Like-named read-outs stand apart in the source and are kept apart here.

Legend:
[1] = for MPR AUC0‐t (metabolite‐to‐parent ratio) / MPR AUCinf (metabolite‐to‐parent ratio) / MPR Cmax (metabolite‐to‐parent, 5‐HVLX‐gluc to viloxazine, ratio): adjusted for molecular weights; for AUC0‐t, geometric mean / AUCinf, geometric mean / Cmax, geometric mean: geometric least‐squares mean of log‐transformed values
[2] = Steady-state plasma pharmacokinetics of paroxetine, healthy adults; assay type: in vivo, human
[3] = Safety monitoring: treatment-related adverse events in healthy adults; assay type: in vivo, human; details: n = 22 per treatment period
clinical = details: human, plasma, oral
CYP1A2 = details: cited from earlier work
CYP2B6 = details: read-out: CYP2B6 IC50; cited from earlier work
CYP2D6 [4] = details: read-out: CYP2D6 IC50; cited from earlier work
CYP3A4/5 = details: read-out: CYP3A4/5 IC50; two values given; cited from earlier work
CYP2C8 = details: read-out: CYP2C8 IC50; cited from earlier work
CYP2C9 = details: read-out: CYP2C9 IC50; cited from earlier work
CYP2C19 = details: read-out: CYP2C19 IC50; cited from earlier work
CYP2D6 [5] = details: cited from earlier work
[6] = Combination (period 3), mean ± SD
[7] = SPN‐812 alone (period 1), 700 mg single dose, plasma, mean ± SD
[8] = SPN‐812 alone (period 1), mean ± SD
[9] = combination versus SPN‐812 alone
[10] = geometric LS mean ratio, period 3/period 1
[11] = paroxetine 20 mg QD coadministration
[12] = day 13, paroxetine 20 mg once daily, mean ± SD

Compound: CCOc1ccc(O[C@@H]2O[C@H](C(=O)O)[C@@H](O)[C@H](O)[C@H]2O)cc1OCC1CNCCO1 (stereo partly drawn) [5‐HVLX‐gluc, 5‐hydroxyviloxazine glucuronide]
- MPR AUC0‐t (metabolite‐to‐parent ratio) [1, 6]: 0.31 ± 0.08 (25.2%)
- MPR AUCinf (metabolite‐to‐parent ratio) [1, 6]: 0.31 ± 0.08 (25.1%)
- MPR Cmax (metabolite‐to‐parent, 5‐HVLX‐gluc to viloxazine, ratio) [1, 6]: 0.33 ± 0.06 (19.2%)
- AUC0‐t, geometric mean ([1]; Combination (period 3)): 60.1
- AUCinf, geometric mean ([1]; Combination (period 3)): 60.3
- Cmax, geometric mean ([1]; Combination (period 3)): 2.8
- AUC0‐t [1, 7]: 70.5 ± 19.6 (27.8%) μg·h/mL
- AUCinf [1, 7]: 70.7 ± 19.7 (27.9%) μg·h/mL
- Cmax [1, 7]: 3.5 ± 0.8 (24.2%) μg/mL
- t1/2 [1, 7]: 5.7 ± 1.7 (29.6%) h
- MPR AUC0‐t (metabolite‐to‐parent ratio) [1, 8]: 0.49 ± 0.15 (31.1%)
- MPR AUCinf (metabolite‐to‐parent ratio) [1, 8]: 0.48 ± 0.15 (31.5%)
- MPR Cmax (metabolite‐to‐parent, 5‐HVLX‐gluc to viloxazine, ratio) [1, 8]: 0.47 ± 0.12 (27.4%)
- AUC0‐t, geometric mean ([1]; SPN‐812 alone (period 1)): 67.8
- AUCinf, geometric mean ([1]; SPN‐812 alone (period 1)): 67.9
- Cmax, geometric mean ([1]; SPN‐812 alone (period 1)): 3.4
- delay of median Tmax after the combination compared with SPN‐812 alone [1, 9]: ≈ 3 hour
- AUC0‐t ratio, combination/SPN‐812 alone (relative bioavailability) [1, 10]: 88.75% and 88.8%
- AUCinf ratio, combination/SPN‐812 alone (relative bioavailability) [1, 10]: 88.77% and 88.8%
- Cmax ratio, combination/SPN‐812 alone (relative bioavailability) [1, 10]: 83.05% and 83.1%
- decrease in AUC0‐t after the combination versus SPN‐812 alone [1, 11]: 12%
- decrease in AUCinf after the combination versus SPN‐812 alone [1, 11]: 12%
- decrease in Cmax after the combination versus SPN‐812 alone [1, 11]: 17%

Compound: Fc1ccc([C@@H]2CCNC[C@H]2COc2ccc3c(c2)OCO3)cc1 [Paroxetine, paroxetine]
- Cavg [2, 12]: 29.6 ± 15.7 ng/mL
- Cmin,ss [2, 12]: 22.3 ± 13.4 ng/mL
- AUC ([2]; human, plasma, oral, 20 mg): 709 ± 377 ng·h/mL
- Cmax ([2]; human, plasma, oral, 20 mg): 39 ± 19 ng/mL
- Tmax ([2]; human, plasma, oral, 20 mg): 6 h
- Abnormal dreams (treatment‐related) [3]: 0 n (%)
- Any adverse event (treatment‐related) [3]: 3 (13.6%) n (%)
- Decreased appetite (treatment‐related) [3]: 0 n (%)
- Diarrhea (treatment‐related) [3]: 3 (13.6%) n (%)
- Dysgeusia (treatment‐related) [3]: 0 n (%)
- Palpitations (treatment‐related) [3]: 0 n (%)
- Somnolence (treatment‐related) [3]: 0 n (%)

Compound: CCOc1ccccc1OCC1CNCCO1 (stereo not drawn) [Viloxazine, viloxazine]
- change (increase) in AUC / exposure with CYP2D6 inhibition by paroxetine [1, 9]: < 35%
- delay of median Tmax after the combination compared with SPN‐812 alone [1, 9]: ≈ 1 hour
- increase in AUC0‐t after the combination versus SPN‐812 alone [1, 11]: under 35%
- increase in AUCinf after the combination versus SPN‐812 alone [1, 11]: under 35%
- increase in Cmax after the combination versus SPN‐812 alone [1, 11]: 16%
- half-life (clinical; 700 mg): 5.2 ± 2.3 h
- AUC (clinical; AUC0‐t, Combination (period 3): SPN‐812 700 mg + paroxetine 20 mg QD, mean ± SD): 112000 ± 23900 ng·h/mL
- IC50 (CYP1A2; read-out: CYP1A2 reversible inhibition IC50, reversible inhibition): 0.269 µM
- IC50 (CYP1A2; read-out: CYP1A2 time‐dependent inhibition IC50, after 30 minute preincubation with nicotinamide adenine dinucleotide phosphate): 0.0436 µM
- IC50 (CYP2B6): 184 µM
- IC50 (CYP2D6 [4]): 141 µM
- IC50 (CYP3A4/5): 221 µM and 352 µM
- IC50 (CYP2C8): > 1010 µM
- IC50 (CYP2C9): > 1010 µM
- IC50 (CYP2C19): > 1010 µM
- share of CYP2D6 in the formation of 5‐hydroxyviloxazine (CYP2D6 [5]): < 50%
